Experimental data taken from patent US20090062277A1, “PHOSPHODIESTERASE 10 INHIBITORS” (priority 2007, published 2009).

What follows are compounds tested against T1, mPDE10A7 (Mus musculus, UniProt Q8CA95) (assay: mPDE10A7 enzyme inhibition (IMAP fluorescence polarization)). Conditions: fluorescein labeled cAMP or cGMP substrate, 30 min at room temperature.
T1 sequence (Q8CA95 446-763 limits assumed): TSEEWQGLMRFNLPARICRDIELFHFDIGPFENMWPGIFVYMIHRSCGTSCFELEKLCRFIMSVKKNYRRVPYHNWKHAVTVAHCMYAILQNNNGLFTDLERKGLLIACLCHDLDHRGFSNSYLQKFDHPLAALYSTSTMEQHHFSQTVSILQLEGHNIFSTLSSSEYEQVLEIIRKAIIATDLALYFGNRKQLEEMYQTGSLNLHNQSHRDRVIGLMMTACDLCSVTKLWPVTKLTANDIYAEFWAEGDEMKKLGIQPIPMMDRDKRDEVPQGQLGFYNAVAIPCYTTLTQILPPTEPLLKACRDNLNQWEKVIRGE
Type: biochemical
Protocol: Enzyme Activity. To analyze the enzyme activity, 5 μL of serial diluted mPDE10A7 containing lysate were incubated with equal volumes of diluted (100-fold) fluorescein labeled cAMP or cGMP for 30 min in MDC HE 96-well assay plates (Molecular Devices Corp., Sunnyvale Calif.) at room temperature. Both the enzyme and the substrates were diluted in the following assay buffer: Tris/HCl (pH 8.0) 50 mM, MgCl2 5 mM, 2-mercaptoethanol 4 mM, and BSA 0.33 mg/mL. After incubation, the reaction was stopped by adding 20 μL of diluted (400-fold) binding reagents and was incubated for an hour at room temperature. The plates were counted in an Analyst GT (Molecular Devices) for fluorescence polarization. An IMAP assay kit (Molecular Devices) was used to assess enzyme properties of mPDE10A7. Data were analyzed with SOFTMAX PRO software (Molecular Devices).
Enzyme Inhibition. To check the inhibition profile, 10 μL of serial diluted compounds were incubated with 30 μl of diluted PDE enzymes in a 96-well polystyrene assay plate for 30 min at room temperature. After incubation, 5 μL of the compound-enzyme mixture were aliquoted into a MDC HE black plate, mixed with 5 μl of 100-fold diluted fluorescein labeled substrates (cAMP or cGMP), and incubated for 30 min at room temperature. The reaction was stopped by adding 20 μL of diluted binding reagents and counted in an Analyst GT for fluorescence polarization. The data were analyzed with SoftMax Pro.
Work on `COC[C@H]1CCCN1c1ncc(-c2cnnc3cc(OC)c(OC)cc23)cc1Cl` [Cpd 9] yielded an IC50 of 1 nM. `COc1cc2nncc(-c3ccc(N4CCC(O)(c5ccccn5)CC4)nc3)c2cc1OC` [Cpd 2, 1-(5-(6,7-dimethoxycinnolin-4-yl)pyridin-2-yl)-4-(pyridin-2-yl)piperidin-4-ol] gave an IC50 of 5.58 nM. With `COc1cc2nncc(-c3ccc(N4CCN(C(C)=O)CC4)nc3)c2cc1OC` [Cpd 18] the IC50 was 6.56 nM. For `COc1cc2nncc(-c3ccc(N4CCC(C(=O)N5CCOCC5)CC4)nc3)c2cc1OC` [Cpd 27], the IC50 was 5.63 nM. `COc1cc2nncc(-c3ccc(N4CCN(c5cccc(C(F)(F)F)c5)CC4)nc3)c2cc1OC` [Cpd 15] gave an IC50 of 126 nM. In the case of `COc1cc2nncc(-c3cnc(N4CCC(C(N)=O)CC4)c(C)c3)c2cc1OC` [Cpd 28], the IC50 is reported as 2.08 nM. `COc1cc2nncc(-c3ccc(N4CCN(CC5CC5)CC4)nc3)c2cc1OC` [Cpd 17] gave an IC50 of 10.2 nM. `COc1cc2nncc(-c3cnc(N4CCC(O)(c5ccccn5)CC4)c(Cl)c3)c2cc1OC` [Cpd 8, 1-(3-chloro-5-(6,7-dimethoxycinnolin-4-yl)pyridin-2-yl)-4-(pyridin-2-yl)piperidin-4-ol] was tested, and the IC50 was 3.07 nM. Compound `COc1cc2nncc(-c3ccc(N4CCN(c5ncc(Cl)cc5Cl)CC4)nc3)c2cc1OC` [Cpd 14] has an IC50 of 417 nM. `COc1cc2nncc(-c3cnc(N4CCC(O)(c5cccnc5)CC4)c(C)c3)c2cc1OC` [Cpd 13] gave an IC50 of 1.02 nM. `COc1cc2nncc(-c3ccc(N4CCCC4CN(C)C)nc3)c2cc1OC` (centres unmarked) [Cpd 20] gave an IC50 of 60.2 nM. In the case of `COc1cc2nncc(-c3ccc(N4CCN(C(=O)C5CC5)CC4)nc3)c2cc1OC` [Cpd 22], the IC50 is reported as 4.85 nM. `COc1cc2c(-c3ccc(N4CCC(O)(c5ccccc5)CC4)nc3)cnnc2cc1C` [Cpd 35] gave an IC50 of 191 nM. `COc1cc2nccc(-c3cnc(N4CCC(C(C)(C)O)CC4)c(C)c3)c2cc1OC` [Cpd 24] was tested, and the IC50 was 4.22 nM. `CCOC(=O)C1CCN(c2ccc(-c3cnnc4cc(OC)c(OC)cc34)cn2)CC1` [Cpd 30] showed an IC50 of 9.57 nM. In the case of `COc1cc2nncc(-c3ccc(N4CCCC4c4cccs4)nc3)c2cc1OC` (centres unmarked) [Cpd 25], the IC50 is reported as 7.42 nM. Work on `COc1cc2nncc(-c3cnc(N4CCC(C)(O)CC4)c(C)c3)c2cc1OC` [Cpd 7, 1-(5-(6,7-dimethoxycinnolin-4-yl)-3-methylpyridin-2-yl)-4-methylpiperidin-4-ol] yielded an IC50 of 0.6 nM. `COc1cc2cncc(-c3cnc(N4CCC(C(C)(C)O)CC4)c(C)c3)c2cc1OC` [Cpd 12] showed an IC50 of 14.7 nM. Work on `COc1cc2nncc(-c3cnc(N4CCC(O)(C5CC5)CC4)c(C)c3)c2cc1OC` [Cpd 4, 4-cyclopropyl-1-(5-(6,7-dimethoxycinnolin-4-yl)-3-methylpyridin-2-yl)piperidin-4-ol] yielded an IC50 of 2.8 nM. Work on `COc1cc2nncc(-c3cnc(N4CCN(c5ccc(F)cc5F)CC4)c(C)c3)c2cc1OC` [Cpd 16] yielded an IC50 of 11 nM.
